Measurements from patent US11530210B2, “Substituted heteroaromatic pyrazolo-pyridines and their use as GLUN2B receptor modulators” (JANSSEN PHARMACEUTICA NV, priority 2019, dated 2022).
Where a name gives a salt, the structure may show the parent alone.

These compounds were tested against T1, human GluN1/GluN2B NMDA receptors (Homo sapiens, UniProt Q13224) (assay: Calcium flux (FLIPR) assay on cloned human NR1/GluN2B ion channels expressed in mammalian cells (standard and HTS variants)). Conditions: cells expressing human GluN1/GluN2B, glutamate and glycine co-agonists.
T1 construct: expressed in transfected cells
T1 sequence (Q13224 27-1484, other chains not shown): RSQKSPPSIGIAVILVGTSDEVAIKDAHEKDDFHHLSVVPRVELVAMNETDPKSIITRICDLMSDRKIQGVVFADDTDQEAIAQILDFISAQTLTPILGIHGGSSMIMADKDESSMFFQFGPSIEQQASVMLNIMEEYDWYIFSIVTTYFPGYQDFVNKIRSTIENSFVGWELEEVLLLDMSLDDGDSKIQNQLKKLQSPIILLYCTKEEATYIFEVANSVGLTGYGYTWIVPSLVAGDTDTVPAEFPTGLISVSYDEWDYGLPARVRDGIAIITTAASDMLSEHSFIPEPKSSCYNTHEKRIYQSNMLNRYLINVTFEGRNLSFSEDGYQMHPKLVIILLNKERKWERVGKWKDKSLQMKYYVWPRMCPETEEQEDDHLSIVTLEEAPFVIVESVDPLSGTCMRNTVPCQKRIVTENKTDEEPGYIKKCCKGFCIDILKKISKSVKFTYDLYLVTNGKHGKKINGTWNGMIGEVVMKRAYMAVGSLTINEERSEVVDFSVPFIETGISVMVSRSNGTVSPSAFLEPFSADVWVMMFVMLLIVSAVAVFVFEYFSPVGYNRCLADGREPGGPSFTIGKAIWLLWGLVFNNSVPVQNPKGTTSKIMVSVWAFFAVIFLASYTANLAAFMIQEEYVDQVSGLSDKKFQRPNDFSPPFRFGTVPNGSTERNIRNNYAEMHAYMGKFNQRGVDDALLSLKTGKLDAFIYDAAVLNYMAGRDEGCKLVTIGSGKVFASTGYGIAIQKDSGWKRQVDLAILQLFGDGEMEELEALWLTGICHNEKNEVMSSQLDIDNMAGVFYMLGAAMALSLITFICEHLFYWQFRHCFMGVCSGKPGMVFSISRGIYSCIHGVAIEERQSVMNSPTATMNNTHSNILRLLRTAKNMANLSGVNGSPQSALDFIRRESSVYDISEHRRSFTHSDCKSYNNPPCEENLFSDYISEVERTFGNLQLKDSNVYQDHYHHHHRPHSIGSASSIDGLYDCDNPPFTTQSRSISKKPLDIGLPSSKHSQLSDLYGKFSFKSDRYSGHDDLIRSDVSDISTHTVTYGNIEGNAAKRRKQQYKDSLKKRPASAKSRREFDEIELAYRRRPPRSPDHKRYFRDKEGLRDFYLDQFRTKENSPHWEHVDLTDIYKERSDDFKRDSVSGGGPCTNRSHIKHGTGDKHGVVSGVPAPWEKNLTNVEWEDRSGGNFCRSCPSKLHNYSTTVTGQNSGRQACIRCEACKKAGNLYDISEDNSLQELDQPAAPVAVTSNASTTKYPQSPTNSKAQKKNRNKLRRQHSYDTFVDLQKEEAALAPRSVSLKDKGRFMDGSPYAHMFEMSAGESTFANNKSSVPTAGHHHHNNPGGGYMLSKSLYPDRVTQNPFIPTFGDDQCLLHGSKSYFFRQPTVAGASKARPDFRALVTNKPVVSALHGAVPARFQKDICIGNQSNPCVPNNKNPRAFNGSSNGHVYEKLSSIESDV
Assay type: cell-based
Protocol: Effects of Test Articles on Cloned Human NR1/GuN2B Ion Channels Expressed in Mammalian Cells
NMDA receptors are ion channels that are highly permeable to Ca^2+ ions, rendering it possible to monitor NMDA receptor function using cell-based calcium flux assay. In this assay, co-agonists glutamate and glycine are added to cells heterologously expressing human GluN1/GluN2B NMDA receptors to initiate cellular Ca^2+ influx. The time course of the changes in intracellular calcium is measured using a fluorescent dye and a FLIPR (Fluorometric Imaging Plate Reader) device.
Twenty-four hours before measurements, the expression of the NMDA receptors in the stable cell line is induced with Tet-On inducible system in the presence of a non-selective NMDA receptor blocker. On the day of the experiment, cell culture media is carefully washed, and the cells are loaded with Calcium 5 Dye Kit (Molecular Devices) in dye loading buffer containing 137 mM NaCl, 4 mM KCl, 2 mM CaCl2, 0.5 mM MgCl2 (standard assay) or 1.5 mM MgCl2 (HTS assay), 10 mM HEPES and 5 mM D-glucose; pH 7.4. After 1 h incubation at the room temperature, the dye is washed away with the assay buffer (137 mM NaCl (standard assay) or 150 mM (HTS assay), 4 mM KCl (standard assay) or 3 mM (HTS assay), 2 mM CaCl2), 0.01 mM EDTA, 10 mM HEPES and 5 mM D-glucose; pH 7.4) In the FLIPR TETRA reader, various concentrations of the test compounds are added to the cells for 5 min while fluorescence is monitored to detect potential agonist activity. Next, co-agonists, glutamate and glycine are added for another 5 minutes. The concentration of glutamate corresponding to ˜EC40 (standard assay) or EC40 (HTS assay) is used to maximize the assay's signal window and ability to detect NMDA receptor antagonists and negative allosteric modulators. A saturating concentration (10 μM) of glycine is also present in the assay. A non-selective NMDA receptor antagonist, (+)MK-801 is used as a positive control for antagonist activity. The fluorescent signal in the presence of test compounds is quantified and normalized to the signal defined by the appropriate control wells.

SMILES | IC50 [µM]
FC(F)(F)c1cccc(-c2cnc3cnn(Cc4ncccn4)c3c2)c1 [Example 1, 1-(Pyrimidin-2-ylmethyl)-6-[3-(trifluoromethyl)phenyl]pyrazolo[4,3-b]pyridine] | 0.8
FC(F)(F)c1cccc(-c2cnc3cnn(Cc4cncc(Br)c4)c3c2)c1 [Example 2, 1-[(5-Bromo-3-pyridyl)methyl]-6-[3-(trifluoromethyl)phenyl]pyrazolo[4,3-b]pyridine] | 0.329
N#Cc1cncc(Cn2ncc3ncc(-c4cccc(C(F)(F)F)c4)cc32)c1 [Example 3, 5-[[6-[3-(Trifluoromethyl)phenyl]pyrazolo[4,3-b]pyridin-1-yl]methyl]pyridine-3-carbonitrile] | 0.483
Cc1ncc(Cn2ncc3ncc(-c4cccc(C(F)(F)F)c4)cc32)cn1 [Example 4, 1-[(2-Methylpyrimidin-5-yl)methyl]-6-[3-(trifluoromethyl)phenyl]pyrazolo[4,3-b]pyridine trifluoroacetate salt] | 4.67
FC(F)(F)c1cccc(-c2cnc3cnn(Cc4cnccn4)c3c2)c1 [Example 5, 1-(Pyrazin-2-ylmethyl)-6-[3-(trifluoromethyl)phenyl]pyrazolo[4,3-b]pyridine dihydrochloride salt] | 0.237
FC(F)(F)c1cccc(-c2cnc3cnn(Cc4ccncn4)c3c2)c1 [Example 6, 1-(Pyrimidin-4-ylmethyl)-6-[3-(trifluoromethyl)phenyl]pyrazolo[4,3-b]pyridine hydrochloride salt] | 0.819
FC(F)(F)c1cccc(-c2cnc3cnn(Cc4nnco4)c3c2)c1 [Example 7, 2-[[6-[3-(Trifluoromethyl)phenyl]pyrazolo[4,3-b]pyridin-1-yl]methyl]-1,3,4-oxadiazole] | 0.748
Cc1cnc(Cn2ncc3ncc(-c4ccc(F)c(C)c4F)cc32)o1 [Example 9, 2-[[6-(2,4-Difluoro-3-methyl-phenyl)pyrazolo[4,3-b]pyridin-1-yl]methyl]-5-methyl-oxazole] | 0.078
Fc1ccc(-c2cnc3cnn(Cc4cn[nH]c4)c3c2)cc1OC(F)F [Example 11, 6-[3-(Difluoromethoxy)-4-fluoro-phenyl]-1-(1H-pyrazol-4-ylmethyl)pyrazolo[4,3-b]pyridine] | 0.486
Cc1nnc(Cn2ncc3ncc(-c4ccc(F)c(C(F)F)c4)cc32)[nH]1 [Example 13, 6-[3-(Difluoromethyl)-4-fluoro-phenyl]-1-[(5-methyl-4H-1,2,4-triazol-3-yl)methyl]pyrazolo[4,3-b]pyridine] | 1.96
Cc1cc(Cn2ncc3ncc(-c4cccc(C(F)(F)F)c4)cc32)[nH]n1 [Example 14, 1-[(3-Methyl-1H-pyrazol-5-yl)methyl]-6-[3-(trifluoromethyl)phenyl]pyrazolo[4,3-b]pyridine] | 4.74
CNc1nnc(Cn2ncc3ncc(-c4ccc(F)c(OC(F)F)c4)cc32)s1 [Example 15, 5-[[6-[3-(Difluoromethoxy)-4-fluoro-phenyl]pyrazolo[4,3-b]pyridin-1-yl]methyl]-N-methyl-1,3,4-thiadiazol-2-amine] | > 2.99
Nc1nnc(Cn2ncc3ncc(-c4ccc(F)c(C(F)F)c4)cc32)s1 [Example 16, 5-[[6-[3-(difluoromethyl)-4-fluoro-phenyl]pyrazolo[4,3-b]pyridin-1-yl]methyl]-1,3,4-thiadiazol-2-amine] | 1.05
Oc1nnc(Cn2ncc3ncc(-c4ccc(F)c(C(F)F)c4)cc32)s1 [Example 17, 5-[[6-[3-(Difluoromethyl)-4-fluoro-phenyl]pyrazolo[4,3-b]pyridin-1-yl]methyl]-1,3,4-thiadiazol-2-ol] | 0.064
Nc1nnc(Cn2ncc3ncc(-c4ccc(F)c(OC(F)F)c4)cc32)s1 [Example 18, 5-[[6-[3-(Difluoromethoxy)-4-fluoro-phenyl]pyrazolo[4,3-b]pyridin-1-yl]methyl]-1,3,4-thiadiazol-2-amine] | 3.55
CC(=O)Nc1nnc(Cn2ncc3ncc(-c4ccc(F)c(OC(F)F)c4)cc32)s1 [Example 19, N-(5-((6-(3-(Difluoromethoxy)-4-fluorophenyl)-1H-pyrazolo[4,3-b]pyridin-1-yl)methyl)-1,3,4-thiadiazol-2-yl)acetamide] | > 2.99
FC(F)(F)c1cccc(-c2cnc3cnn(Cc4ncon4)c3c2)c1 [Example 20, 3-[[6-[3-(Trifluoromethyl)phenyl]pyrazolo[4,3-b]pyridin-1-yl]methyl]-1,2,4-oxadiazole] | 0.751

SMILES | IC50 [µM]
FC(F)(F)c1cccc(-c2cnc3cnn(Cc4ccccc4)c3c2)c1 [Example 21, 1-Benzyl-6-[3-(trifluoromethyl)phenyl]pyrazolo[4,3-b]pyridine hydrochloride salt] | 3.28
Fc1cccc(Cn2ncc3ncc(-c4cccc(C(F)(F)F)c4)cc32)c1 [Example 22, 1-[(3-Fluorophenyl)methyl]-6-[3-(trifluoromethyl)phenyl]pyrazolo[4,3-b]pyridine hydrochloride salt] | 1.82
N#Cc1cccc(Cn2ncc3ncc(-c4cccc(C(F)(F)F)c4)cc32)c1 [Example 23, 3-[[6-[3-(Trifluoromethyl)phenyl]pyrazolo[4,3-b]pyridin-1-yl]methyl]benzonitrile] | 0.4
COc1ccc(Cn2ncc3ncc(-c4cccc(C(F)(F)F)c4)cc32)cc1 [Example 24, 1-[(4-Methoxyphenyl)methyl]-6-[3-(trifluoromethyl)phenyl]pyrazolo[4,3-b]pyridine hydrochloride salt] | 7.93
FC(F)(F)c1ccc(Cn2ncc3ncc(-c4cccc(C(F)(F)F)c4)cc32)cc1 [Example 25, 6-[3-(Trifluoromethyl)phenyl]-1-[[4-(trifluoromethyl)phenyl]methyl]pyrazolo[4,3-b]pyridine hydrochloride salt] | > 10
N#Cc1cccc(Cn2ncc3ncc(-c4ccc(F)c(C(F)F)c4)cc32)c1 [Example 26, 3-[[6-[3-(Difluoromethyl)-4-fluoro-phenyl]pyrazolo[4,3-b]pyridin-1-yl]methyl]benzonitrile] | 0.062
Fc1cc(F)cc(Cn2ncc3ncc(-c4ccc(F)c(C(F)F)c4)cc32)c1 [Example 27, 6-[3-(Difluoromethyl)-4-fluoro-phenyl]-1-[(3,5-difluorophenyl)methyl]pyrazolo[4,3-b]pyridine] | 0.394
N#Cc1cc(F)cc(Cn2ncc3ncc(-c4ccc(F)c(C(F)F)c4)cc32)c1 [Example 28, 3-[[6-[3-(Difluoromethyl)-4-fluoro-phenyl]pyrazolo[4,3-b]pyridin-1-yl]methyl]-5-fluoro-benzonitrile] | 0.125
N#Cc1cccc(Cn2ncc3ncc(-c4ccc(F)c(OC(F)F)c4)cc32)c1 [Example 29, 3-[[6-[3-(Difluoromethoxy)-4-fluoro-phenyl]pyrazolo[4,3-b]pyridin-1-yl]methyl]benzonitrile] | 0.065
Fc1cc(F)cc(Cn2ncc3ncc(-c4ccc(F)c(OC(F)F)c4)cc32)c1 [Example 30, 6-[3-(Difluoromethoxy)-4-fluoro-phenyl]-1-[(3,5-difluorophenyl)methyl]pyrazolo[4,3-b]pyridine] | 0.536
N#Cc1cc(F)cc(Cn2ncc3ncc(-c4ccc(F)c(OC(F)F)c4)cc32)c1 [Example 31, 3-[[6-[3-(Difluoromethoxy)-4-fluoro-phenyl]pyrazolo[4,3-b]pyridin-1-yl]methyl]-5-fluoro-benzonitrile] | 0.389
Cc1ccc(Cn2ncc3ncc(-c4ccc(F)c(C(F)F)c4)cc32)s1 [Example 32, 6-[3-(Difluoromethyl)-4-fluoro-phenyl]-1-[(5-methyl-2-thienyl)methyl]pyrazolo[4,3-b]pyridine] | > 2.99
Fc1ccc(Cn2ncc3ncc(-c4ccc(F)c(C(F)F)c4)cc32)s1 [Example 33, 6-(3-(Difluoromethyl)-4-fluorophenyl)-1-((5-fluorothiophen-2-yl)methyl)-1H-pyrazolo[4,3-b]pyridine] | 1.03
N#Cc1ccc(Cn2ncc3ncc(-c4ccc(F)c(C(F)F)c4)cc32)s1 [Example 34, 5-((6-(3-(Difluoromethyl)-4-fluorophenyl)-1H-pyrazolo[4,3-b]pyridin-1-yl)methyl)thiophene-2-carbonitrile] | 0.353
CC(F)(F)c1cccc(-c2cnc3cnn(Cc4cn[nH]c4)c3c2)c1 [Example 35, 6-[3-(1,1-Difluoroethyl)phenyl]-1-(1H-pyrazol-4-ylmethyl)pyrazolo[4,3-b]pyridine] | 0.648
Cn1cnc(Cn2ncc3ncc(-c4cccc(C(F)(F)F)c4)cc32)c1 [Example 36, 1-[(1-Methylimidazol-4-yl)methyl]-6-[3-(trifluoromethyl)phenyl]pyrazolo[4,3-b]pyridine] | 0.668
